The record followed here is patent publication US20090299063A1, “Inhibitors for Extracellular Signal-Regulated Kinase Docking Domains and Uses Therefor” (priority 2005, published 2009).

Each structure is given as a SMILES string. Entries after “also recorded” stand apart in the source; their conditions may differ.

The test system of assay [1] is ERK-mediated phosphorylation of Rsk-1 on Thr573. Nature of the assay: ERK-mediated Rsk-1 phosphorylation, immunoblot of EGF-stimulated HeLa cells. The class given is cell-based, human. A general note: A western blot detects proteins with antibodies after separation by electrophoresis.
Another assay concerns HeLa cells. Nature of the assay: Colony formation assay, HeLa cells. The class given is cell-based, human. Particulars: FIG. 8A, 10 cm plates, 100 mM (printed) compound. As to the method:
(§1) HeLa, A549, or SUM-159 cells were plated at a low density of 200-400 cells per well in the absence or presence of putative ERK docking domain inhibitors. Cell colonies were stained with crystal violet and counted after 6-10 days. In FIG. 8A cells were grown on 10 cm plates in the absence (−) or presence of […] of compound 67, 36, 68, 81, or 76. Colony formation dose response in the presence of the indicated concentrations of compound 76 (closed squares) or 81 (open squares) for Hela cells ([…]) (FIG. 8B), A549 cells (50 mM) (FIG. 8C), or SUM-159 cells (50 mM) (FIG. 8D).
(§2) Two methods were used to determine cell proliferation and survival based on colony formation. First, HeLa cells were grown to 70-80% confluence and then treated for 16 hours in the absence (DMSO only) or presence of active compounds. The next day cells were trypsinized, replated (1000-2000 cells per 10 cm culture dish) in regular media and allowed to grow for 8-14 days. Cells then were fixed for 10 minutes in 4% paraformaldehyde and stained with 0.2% crystal violet (in 20% methanol) for 1-2 minutes. Cells were washed several times with distilled water and colonies formed of at least 40 cells were counted. In the second method, growing cells were trypsinized and replated (500-1000 cells per 35 or 60 mm well, respectively) in the presence or absence of various concentrations of the test compounds. Following incubation for 8-14 days, cells were fixed, stained with crystal violet, and counted as described above.
The effects of the active compounds on cell proliferation and survival were tested using a colony formation assay.
(§3) Thus, several test compounds that show maximal inhibition of ERK substrates are also effective inhibitors of proliferation in cultured cancer cell lines.

The test system of assay [2] is HT1080 fibrosarcoma cells. Put plainly: Cell proliferation, HT1080 cells. In kind it is cell-based, human. Particulars: HT1080, data not shown. Here is the method: as §2, §3
Assay [3] deals with SUM-159 estrogen-receptor negative breast cancer cell line. Put plainly: Colony formation assay, SUM-159 cells. The class given is cell-based, human. Conditions: SUM-159, FIG. 8D. As to the method: as §1
as §2, with “In the second method, growing cells were trypsinized and replated (500-1000 cells per 35 or 60 mm well, respectively) in the presence or absence of various concentrations of the test compounds.” left out, “above. […]” for “above.”

Another assay deals with T1, ERK2 (Mus musculus, UniProt P63085).
T1 construct: (His)6; made in house; host or cells: bacteria
Put plainly: ERK2 fluorescence titration (quenching of intrinsic fluorescence). Particulars: for quenching of ERK2 fluorescence (in words): wild type ERK2, excitation 295 nm. The class given is binding. The source says: ERK2 was purified as described previously (46) with some modifications. Briefly, (His)6-tagged ERK2 was expressed in bacteria and the cells were harvested in BugBuster protein extraction reagent (EMD Biosciences, San Diego, Calif.). Clarified lysates were loaded onto a Talon Co^2+-IMAC affinity chromatography resin column (BD Biosciences, San Jose, Calif.) and the bound protein was eluted using increasing concentrations of imidazole. SDS-PAGE electrophoresis and Coomassie blue staining were used to identify the eluted fractions containing the ERK2 protein. The ERK2 protein concentration was determined using Bradford Reagent (Sigma).
Experiments will measure the changes in the intrinsic ERK2 fluorescence due to the presence of aromatic amino acids, with the indole group of tryptophan being the major fluorophore with absorption and emission maxima around 280 and 340 nanometers (nm), respectively. Fluorescence spectra were recorded with a Luminescence Spectrometer LS50 (Perkin Elmer, Boston, Mass.). For all experiments, ERK2 protein was diluted into 20 mM Tris-HCl, pH 7.5. Titrations were performed by increasing the test compound concentration while maintaining the ERK2 protein concentration at […]. […] The excitation wavelength was 295 nm and fluorescence was monitored from 300 to 500 nm. All reported fluorescence intensities are relative values and are not corrected for wavelength variations in detector response. Dissociation constants, KD, were determined using reciprocal plots, 1/v vs 1/[I], where v represents the percent occupied sites calculated assuming fluorescence quenching to be directly proportion to the percentage of occupied binding sites, [1] represents the concentration of the inhibitor compound and the slope of the curve equals the KD (48-49).
ERK2 contains three tryptophans, which have intrinsic fluorescence.

For assay [4], the system named is dually phosphorylated ERK1/2 (ppERK1/2). Put plainly: ERK1/2 phosphorylation on activating sites (ppERK1/2), immunoblot of EGF-stimulated HeLa cells. In kind it is cell-based, human. As to the method: In FIGS. 4A-4B HeLa cells were treated with EGF for 5 minutes with or without […] of test compounds. […] The far left lane is the control (−) with no EGF. […] The control (C) is EGF only treatment. In FIG. 4B cells pretreated with increasing concentrations of compound 76 were stimulated with EGF. ELK-1 phosphorylation on Ser383 (pELK-1) was measured by immunoblotting. […] Protein lysates were separated by SDS-PAGE and immunoblotted simultaneously for phosphorylated ELK-1 (pELK-1, Ser383), dually phosphorylated ERK1/2 (ppERK1/2), and a-tubulin as a protein loading control. […] The control (C) is EGF only treatment.
(§4) The lysates then were diluted with an equal volume of 2× SDS-sample buffer and the proteins were separated on SDS-PAGE for immunoblot analysis. Immunoblot analysis was done as previously described (41-43).

Assay [5] concerns ERK-specific phosphorylation of Elk-1 on Ser383. Nature of the assay: ERK-mediated Elk-1 phosphorylation, immunoblot of EGF-stimulated HeLa cells. In kind it is cell-based, human. As to the method:
In FIGS. […] The far left lane is the control (−) with no EGF. […] The control (C) is EGF only treatment. In FIG. 4B cells pretreated with increasing concentrations of compound 76 were stimulated with EGF. ELK-1 phosphorylation on Ser383 (pELK-1) was measured by immunoblotting. […] Protein lysates were separated by SDS-PAGE and immunoblotted simultaneously for phosphorylated ELK-1 (pELK-1, Ser383), dually phosphorylated ERK1/2 (ppERK1/2), and a-tubulin as a protein loading control. […] The control (C) is EGF only treatment.
as §4
Compounds that were identified using the 3D structure of phosphorylated ERK2 also were tested.

The subject of a further assay is colony formation. Put plainly: Colony formation assay of compounds 86-98 (cell line not given). In kind it is cell-based. Conditions: Table 3. As to the method:
Cell colonies were stained with crystal violet and counted after 6-10 days.
Cells then were fixed for 10 minutes in 4% paraformaldehyde and stained with 0.2% crystal violet (in 20% methanol) for 1-2 minutes.

The mark [6] stands for this setting: increasing doses of compound, EGF stimulation.
Setting [7] is: 75 mM (printed) test compound 30 minutes, EGF 5 minutes.

T1 sequence (P63085 whole entry): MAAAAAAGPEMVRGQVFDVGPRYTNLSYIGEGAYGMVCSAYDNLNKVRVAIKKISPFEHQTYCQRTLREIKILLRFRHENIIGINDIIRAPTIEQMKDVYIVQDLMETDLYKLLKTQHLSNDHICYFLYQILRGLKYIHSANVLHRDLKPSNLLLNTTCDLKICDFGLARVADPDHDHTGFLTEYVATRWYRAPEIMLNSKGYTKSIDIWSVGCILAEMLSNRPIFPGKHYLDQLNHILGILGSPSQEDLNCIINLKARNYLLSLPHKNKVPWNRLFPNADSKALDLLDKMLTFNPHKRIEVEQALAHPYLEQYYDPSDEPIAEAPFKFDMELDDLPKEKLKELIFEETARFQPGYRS

For the compound `N=C(N)Nc1nc(C2COc3ccccc3O2)cs1` (stereo not drawn) [Compound 36], the “effect on ERK-mediated Rsk-1 phosphorylation (in words)” value in assay [1] was “little effect on ERK substrate phosphorylation; also recorded: little effect on ERK-mediated Rsk-1 phosphorylation”. Also, the “effect on colony formation / cell proliferation (in words)” value in the assay with HeLa cells is given as “subtle inhibition of colony formation; also recorded: little effect on colony formation”.

On to `CCOc1ccc(C=C2SC(=O)N(CCN)C2=O)cc1` [Compound 76], for which the “inhibition of cell proliferation (in words)” value in assay [2] and in assay [3] was “inhibition of cell proliferation” throughout. The “effect on ERK-mediated Rsk-1 phosphorylation (in words)” value in assay [1] is “highest inhibition of Rsk-1 phosphorylation”. Moreover, the “y-intercept of reciprocal plot (indicating a single binding site)” value at ERK2 (wild type ERK2) was found to be 1.8. Besides, the “quenching of ERK2 fluorescence (in words)” value (“quenching” for short) at ERK2 is recorded as “strong quenching of fluorescence”. In addition, the “effect on colony formation / cell proliferation (in words)” value with HeLa cells is on record as “completely inhibited cell proliferation”. In assay [4] (setting [6]), the “effect on ERK1/2 phosphorylation on its activating sites” value is “largely unaffected”. The “effect on ERK-mediated Elk-1 phosphorylation (Ser383)” value in assay [5] (setting [6]) is “inhibited ERK-mediated Elk-1 phosphorylation”.

Regarding `O=C(CCN1CCN(C/C=C/c2ccccc2)CC1)Nc1ccc(Cl)cc1` [Compound 81], the “inhibition of cell proliferation (in words)” value in assay [2] and in assay [3] was “inhibition of cell proliferation” throughout. The “quenching” value at ERK2 is given as “quenching only occurs to a small extent at the higher concentrations”. Besides, in the assay with HeLa cells, the “effect on colony formation / cell proliferation (in words)” value was “completely inhibited cell proliferation”.

As to `COc1cc(C=C2NC(=O)NC2=O)ccc1OCc1ccc(Br)cc1` [Compound 95], the “quenching” value on ERK2 is “quenched ERK2 fluorescence; also recorded: more effective in quenching”. Also, the IC50 (usually the concentration that gives 50% inhibition) in the assay with colony formation is greater than 100 µM. Further, the “effect on ERK1/2 phosphorylation (ppERK1/2)” value in assay [4] (setting [7]) was “little effect on ERK1/2 phosphorylation”. Also, the “effect on EGF-mediated ELK-1 phosphorylation (Ser383)” value in assay [5] (setting [7]) is on record as “showed evidence for inhibiting ERK-mediated ELK-1 phosphorylation; also recorded: inhibited EGF-mediated ELK-1 phosphorylation”.
